Read-outs that look alike come from different tables or passages of the source. Where a SMILES comes first, the peptide text is derived from it. Where no end group is shown, it is not given here.
Experiments:
CtBP [1] = biological target: T1, CtBP (Homo sapiens, UniProt Q13363); test: Fluorescence polarization competition of unlabeled peptide with FITC-labeled 14mer peptide; assay type: binding
T1 construct: 6xHis
Protocol: (§1) Additional peptides were tested for in vitro inhibitory potency (Table 5). For Kd determination, FITC-labeled peptide (FITC-peptide) was incubated with varying concentrations of CtBP. The fluorescence polarization values of the FITC-peptide were measured and plotted against CtBP concentration to determine Kd of the FITC-peptide with CtBP using the Prism program. […] For IC50 determination, a fluorescence polarization assay was utilized. […] Increasing concentrations of unlabeled peptide were added to compete with the FITC-labeled peptide, leading to a decreased fluorescence polarization value.

CtBP-E1A interaction = CtBP-E1A interaction (Homo sapiens, UniProt Q13363); test: CtBP-E1A interaction inhibition (AlphaScreen / fluorescence polarization competition assay); assay type: binding
Protocol: The ability of peptides to inhibit CtBP binding can be monitored by two biochemical assays. An AlphaScreen assay (Perkin-Elmer) was developed that is capable of detecting the CtBP-E1A interaction. Purified GST-E1A and 6xHis-CtBP are incubated with glutathione-conjugated donor beads and nickel-chelated acceptor beads respectively. The interaction between CtBP and E1A brings the donor and acceptor beads in close proximity, which produces a fluorescence signal after laser excitation and can be detected using the EnVision plate reader. A peptide that inhibits this interaction will limit the proximity of the beads and thus a loss in fluorescence signal will occur. In addition to the alphascreen, a fluorescence polarization based assay with a fluorescein-labeled 14mer E1A peptide ([…] (SEQ ID NO: 1)) was also developed. Purified 6xHis-CtBP is incubated with the fluorescein-labeled E1A peptide and changes in the polarization value of the labeled peptide are detected using the EnVision plate reader. A decrease in peptide binding to CtBP can be detected by an […], and used to monitor peptide inhibition. IC50 values of designed peptides can be determined using either of these assays through the addition of increasing amounts in each well and monitoring the degree of inhibition of the CtBP-E1A interaction.
Multiple amino acid sequences may appear at positions outside the conserved peptide motif. The most frequently occurring amino acids in these positions are used to design the peptides that bind CtBP with the highest affinity. The affinity of these new peptides is compared to the original 14mer E1A peptide (SEQ ID NO:1) by comparing the IC50 of these peptides in inhibiting the CtBP/E1A protein interaction in a competition assay. The peptide identified from phage display that competes with the CtBP/E1A protein interaction better than the original 14mer E1A peptide is selected and conjugated to the cell penetrating peptide of the present invention. Also provided in Table 3 are […] for selected peptides.
The ability of peptides to inhibit CtBP binding can be monitored by two biochemical assays. An AlphaScreen assay (Perkin-Elmer) was developed that is capable of detecting the CtBP-E1A interaction. Purified GST-E1A and 6xHis-CtBP are incubated with glutathione-conjugated donor beads and nickel-chelated acceptor beads respectively. The interaction between CtBP and E1A brings the donor and acceptor beads in close proximity, which produces a fluorescence signal after laser excitation and can be detected using the EnVision plate reader. A peptide that inhibits this interaction will limit the proximity of the beads and thus a loss in fluorescence signal will occur. In addition to the alphascreen, a fluorescence polarization based assay with a fluorescein-labeled 14mer E1A peptide ([…] (SEQ ID NO: 1)) was also developed. Purified 6xHis-CtBP is incubated with the fluorescein-labeled E1A peptide and changes in the polarization value of the labeled peptide are detected using the EnVision plate reader. A decrease in peptide binding to CtBP can be detected by an […], and used to monitor peptide inhibition. IC50 values of designed peptides can be determined using either of these assays through the addition of increasing amounts in each well and monitoring the degree of inhibition of the CtBP-E1A interaction. Also provided in Table 4 are IC50 for selected peptides.

[2] = tested on: IMQ-based psoriasis model; test: IMQ-based psoriasis model; assay type: in vivo, mouse; conditions: treated mice versus PBS control
Protocol: To elucidate the molecular mechanisms for the Pep1-E1A blocker, H&E and immunostaining for proliferative and inflammatory markers was performed.

[3] = tested on: IMQ-based psoriasis model; test: IMQ-based psoriasis model; assay type: in vivo, mouse; conditions: Example 12, subcutaneously applied on the skin, FIG. 15B
CtBP [4] = biological target: T1, CtBP; test: Fluorescence polarization Kd determination of FITC-peptide with CtBP; assay type: binding; conditions: read-out: Kd
Protocol: as §1

[5] = IC50 value, Table 3, inhibition of CtBP/E1A protein interaction

## CC(C)C[C@H](NC(=O)[C@H](CC(=O)O)NC(=O)[C@H](CC(C)C)NC(=O)[C@@H]1CCCN1C(=O)CNC(=O)[C@H](CC(=O)O)NC(=O)CNC(=O)CN)C(=O)N[C@@H](CS)C(=O)N[C@@H](CS)C(=O)N[C@@H](CCCNC(=N)N)C(=O)N[C@@H](CCCCN)C(=O)N[C@@H](CCCNC(=N)N)C(=O)N1CCC[C@H]1C(=O)O [SEQ ID NO:133] (H-GGDGPLDLCCRKRP-OH; N-terminus and C-terminus assumed)
CtBP [1]
  IC50: 18.8 µM

## CC(C)C[C@H](NC(=O)[C@H](CCC(=O)O)NC(=O)[C@H](CC(=O)O)NC(=O)[C@H](CC(C)C)NC(=O)[C@@H]1CCCN1C(=O)[C@H](CCC(N)=O)NC(=O)CNC(=O)[C@@H]1CCCN1C(=O)[C@H](CCC(=O)O)NC(=O)[C@H](CCC(=O)O)NC(=O)[C@H](CC(C)C)NC(=O)[C@H](CCC(N)=O)NC(=O)[C@@H]1CCCN1C(=O)[C@@H]1CCCN1C(=O)[C@H](CCCNC(=N)N)NC(=O)[C@H](CCCNC(=N)N)NC(=O)[C@H](CCCNC(=N)N)NC(=O)[C@H](CCC(N)=O)NC(=O)[C@H](CCCNC(=N)N)NC(=O)[C@H](CCCNC(=N)N)NC(=O)[C@H](CCCCN)NC(=O)[C@H](CCCCN)NC(=O)[C@H](CCCNC(=N)N)NC(=O)CN)C(=O)N[C@@H](CS)C(=O)N[C@@H](CCCCN)C(=O)N[C@@H](CCCNC(=N)N)C(=O)N1CCC[C@H]1C(=O)N[C@@H](CCCNC(=N)N)C(=O)N[C@@H](CC(=O)O)C(=O)N[C@@H](Cc1ccc(O)cc1)C(=O)N[C@@H](CCCCN)C(=O)N[C@@H](CC(=O)O)C(=O)N[C@@H](CC(=O)O)C(=O)N[C@@H](CC(=O)O)C(=O)N[C@@H](CC(=O)O)C(=O)N[C@@H](CCCCN)C(=O)O [Tat-E1A-Flag (LS-EL)] (H-GRKKRRQRRRPPQLEEPGQPLDELCKRPRDYKDDDDK-OH)
CtBP-E1A interaction; [5]
  IC50: > 200 µM
CtBP-E1A interaction; IC50 value, Table 4, inhibition of CtBP-E1A interaction
  IC50: > 200 µM

## GRKKRRQRRRPPQGGEQTVPVDLSVARPRGL (also: conjugated to FITC) [Tat-E1A peptide]
[2]
  resistance to IMQ-induction of psoriasis: showed resistance
[3]
  psoriasis-like phenotype: significantly reduced

## CC(C)C[C@H](NC(=O)[C@H](CC(=O)O)NC(=O)[C@H](CC(C)C)NC(=O)[C@@H]1CCCN1C(=O)[C@H](CCC(N)=O)NC(=O)CNC(=O)[C@@H]1CCCN1C(=O)[C@H](CCC(=O)O)NC(=O)[C@H](CCC(=O)O)NC(=O)[C@H](CC(C)C)NC(=O)[C@H](CCC(N)=O)NC(=O)[C@@H]1CCCN1C(=O)[C@@H]1CCCN1C(=O)[C@H](CCCNC(=N)N)NC(=O)[C@H](CCCNC(=N)N)NC(=O)[C@H](CCCNC(=N)N)NC(=O)[C@H](CCC(N)=O)NC(=O)[C@H](CCCNC(=N)N)NC(=O)[C@H](CCCNC(=N)N)NC(=O)[C@H](CCCCN)NC(=O)[C@H](CCCCN)NC(=O)[C@H](CCCNC(=N)N)NC(=O)CN)C(=O)N[C@@H](CO)C(=O)N[C@@H](CS)C(=O)N[C@@H](CCC(N)=O)C(=O)N[C@@H](CCCNC(=N)N)C(=O)N1CCC[C@H]1C(=O)N[C@@H](CCCNC(=N)N)C(=O)N[C@@H](CC(=O)O)C(=O)N[C@@H](Cc1ccc(O)cc1)C(=O)N[C@@H](CCCCN)C(=O)N[C@@H](CC(=O)O)C(=O)N[C@@H](CC(=O)O)C(=O)N[C@@H](CC(=O)O)C(=O)N[C@@H](CC(=O)O)C(=O)N[C@@H](CCCCN)C(=O)O [Tat-E1A-Flag (K239Q)] (H-GRKKRRQRRRPPQLEEPGQPLDLSCQRPRDYKDDDDK-OH; N-terminus and C-terminus assumed)
CtBP-E1A interaction; [5]
  IC50: 7.7 µM

## CC(C)C[C@H](NC(=O)[C@H](CC(=O)O)NC(=O)[C@H](CC(C)C)NC(=O)[C@@H]1CCCN1C(=O)[C@H](CCC(N)=O)NC(=O)CNC(=O)[C@@H]1CCCN1C(=O)[C@@H](N)CCC(=O)O)C(=O)N[C@@H](CO)C(=O)N[C@@H](CS)C(=O)N[C@@H](CCC(N)=O)C(=O)N[C@@H](CCCNC(=N)N)C(=O)N1CCC[C@H]1C(=O)N[C@@H](CCCNC(=N)N)C(=O)O [Peptide K239Q] (H-EPGQPLDLSCQRPR-OH; N-terminus and C-terminus assumed)
CtBP-E1A interaction; [5]
  IC50: 12 µM

## CC(C)C[C@H](NC(=O)[C@H](CC(=O)O)NC(=O)[C@H](CC(C)C)NC(=O)[C@@H]1CCCN1C(=O)[C@H](CCC(N)=O)NC(=O)CNC(=O)[C@@H]1CCCN1C(=O)[C@H](CCC(=O)O)NC(=O)[C@H](CCC(=O)O)NC(=O)[C@H](CC(C)C)NC(=O)[C@H](CCC(N)=O)NC(=O)[C@@H]1CCCN1C(=O)[C@@H]1CCCN1C(=O)[C@H](CCCNC(=N)N)NC(=O)[C@H](CCCNC(=N)N)NC(=O)[C@H](CCCNC(=N)N)NC(=O)[C@H](CCC(N)=O)NC(=O)[C@H](CCCNC(=N)N)NC(=O)[C@H](CCCNC(=N)N)NC(=O)[C@H](CCCCN)NC(=O)[C@H](CCCCN)NC(=O)[C@H](CCCNC(=N)N)NC(=O)CN)C(=O)N[C@@H](CO)C(=O)N[C@@H](CS)C(=O)N[C@@H](CCCCN)C(=O)N[C@@H](CCCNC(=N)N)C(=O)N1CCC[C@H]1C(=O)N[C@@H](CCCNC(=N)N)C(=O)N[C@@H](CC(=O)O)C(=O)N[C@@H](Cc1ccc(O)cc1)C(=O)N[C@@H](CCCCN)C(=O)N[C@@H](CC(=O)O)C(=O)N[C@@H](CC(=O)O)C(=O)N[C@@H](CC(=O)O)C(=O)N[C@@H](CC(=O)O)C(=O)N[C@@H](CCCCN)C(=O)O [Tat-E1A fusion] (H-GRKKRRQRRRPPQLEEPGQPLDLSCKRPRDYKDDDDK-OH; N-terminus and C-terminus assumed)
CtBP-E1A interaction; IC50 of inhibition of the CtBP/E1A interaction, FIG. 3, peptide purified from E. coli
  IC50: ~7.7 µM
CtBP-E1A interaction; [5]
  IC50: 1.7 µM

## KETWWETWWTEWSQPKKKRKVLEEPGQPLDLSCKRPRDYKDDDDK [Pep1-E1A-Flag]
CtBP-E1A interaction; [5]
  IC50: 26.6 µM

## CC(C)C[C@H](NC(=O)[C@H](CC(=O)O)NC(=O)[C@H](CC(C)C)NC(=O)[C@@H]1CCCN1C(=O)[C@H](CCC(N)=O)NC(=O)CNC(=O)[C@@H]1CCCN1C(=O)[C@@H](N)CCC(=O)O)C(=O)N[C@@H](CO)C(=O)N[C@@H](CS)C(=O)N[C@@H](C)C(=O)N[C@@H](CCCNC(=N)N)C(=O)N1CCC[C@H]1C(=O)N[C@@H](CCCNC(=N)N)C(=O)O [Peptide K239A] (H-EPGQPLDLSCARPR-OH; N-terminus and C-terminus assumed)
CtBP-E1A interaction; [5]
  IC50: 21.9 µM

## EQTVPVDLSVARPR [SEQ ID NO:132]
CtBP [4]; Table 5, FITC-peptide with CtBP
  Kd: 2.2 µM
CtBP [4]; affinity to CtBP1, Example 12
  Kd: 2.2 µM

## CC(=O)NCCCC[C@H](NC(=O)[C@H](CS)NC(=O)[C@H](CO)NC(=O)[C@H](CC(C)C)NC(=O)[C@H](CC(=O)O)NC(=O)[C@H](CC(C)C)NC(=O)[C@@H]1CCCN1C(=O)[C@H](CCC(N)=O)NC(=O)CNC(=O)[C@@H]1CCCN1C(=O)[C@@H](N)CCC(=O)O)C(=O)N[C@@H](CCCNC(=N)N)C(=O)N1CCC[C@H]1C(=O)N[C@@H](CCCNC(=N)N)C(=O)O [K239-Acetylated] (H-EPGQPLDLSCK(Ac)RPR-OH; N-terminus and C-terminus assumed)
CtBP-E1A interaction; [5]
  IC50: 26.6 µM

## GSHMKETWWETWWTEWSQPKKKRKVLEEPGQPLDLSCQRPRDYKDDDDK [Pep1-E1A-Flag (K239Q) GSHM v.1]
[2]
  resistance to IMQ-induction of psoriasis: showed resistance

## EPGQPLSLSCKRPR [SEQ ID NO:135]
CtBP [1]; Table 5, 50% reduction of fluorescence polarization value
  IC50: did not inhibit CtBP

## CC(C)C[C@H](NC(=O)[C@H](CC(N)=O)NC(=O)[C@H](CC(C)C)NC(=O)[C@@H]1CCCN1C(=O)[C@H](CCC(=O)O)NC(=O)[C@H](CC(=O)O)NC(=O)[C@@H](NC(=O)[C@@H]1CCCN1)[C@@H](C)O)C(=O)N[C@@H](CO)C(=O)N[C@@H](CC(C)C)C(=O)N[C@@H](CCCCN)C(=O)N[C@@H](CCCNC(=N)N)C(=O)N1CCC[C@H]1C(=O)N[C@@H](CCCNC(=N)N)C(=O)O [SEQ ID NO:134] (H-PTDEPLNLSLKRPR-OH; N-terminus and C-terminus assumed)
CtBP [1]
  IC50: 4.4 µM

Source: patent US9683025B2, “Methods and compositions for treating cancer and inflammatory diseases” (The Regents of the University of Colorado, A Body Corporate, priority 2013, dated 2017)
